The source of these data is patent US11466006B2, “Dual selective PI3 delta and gamma kinase inhibitors” (Rhizen Pharmaceuticals SA, priority 2013, dated 2022).

Read-outs that look alike come from different tables or passages of the source. A value given as a limit tells only on which side of the number the result lay.

One test deals with T1, PI3K delta (Homo sapiens, UniProt O00329).
T1 construct: Isolated B-cells were re-suspended to 1.0×10^6 cells per ml; endogenous in cells; host or cells: isolated human B cells
T1 sequence (O00329 whole entry): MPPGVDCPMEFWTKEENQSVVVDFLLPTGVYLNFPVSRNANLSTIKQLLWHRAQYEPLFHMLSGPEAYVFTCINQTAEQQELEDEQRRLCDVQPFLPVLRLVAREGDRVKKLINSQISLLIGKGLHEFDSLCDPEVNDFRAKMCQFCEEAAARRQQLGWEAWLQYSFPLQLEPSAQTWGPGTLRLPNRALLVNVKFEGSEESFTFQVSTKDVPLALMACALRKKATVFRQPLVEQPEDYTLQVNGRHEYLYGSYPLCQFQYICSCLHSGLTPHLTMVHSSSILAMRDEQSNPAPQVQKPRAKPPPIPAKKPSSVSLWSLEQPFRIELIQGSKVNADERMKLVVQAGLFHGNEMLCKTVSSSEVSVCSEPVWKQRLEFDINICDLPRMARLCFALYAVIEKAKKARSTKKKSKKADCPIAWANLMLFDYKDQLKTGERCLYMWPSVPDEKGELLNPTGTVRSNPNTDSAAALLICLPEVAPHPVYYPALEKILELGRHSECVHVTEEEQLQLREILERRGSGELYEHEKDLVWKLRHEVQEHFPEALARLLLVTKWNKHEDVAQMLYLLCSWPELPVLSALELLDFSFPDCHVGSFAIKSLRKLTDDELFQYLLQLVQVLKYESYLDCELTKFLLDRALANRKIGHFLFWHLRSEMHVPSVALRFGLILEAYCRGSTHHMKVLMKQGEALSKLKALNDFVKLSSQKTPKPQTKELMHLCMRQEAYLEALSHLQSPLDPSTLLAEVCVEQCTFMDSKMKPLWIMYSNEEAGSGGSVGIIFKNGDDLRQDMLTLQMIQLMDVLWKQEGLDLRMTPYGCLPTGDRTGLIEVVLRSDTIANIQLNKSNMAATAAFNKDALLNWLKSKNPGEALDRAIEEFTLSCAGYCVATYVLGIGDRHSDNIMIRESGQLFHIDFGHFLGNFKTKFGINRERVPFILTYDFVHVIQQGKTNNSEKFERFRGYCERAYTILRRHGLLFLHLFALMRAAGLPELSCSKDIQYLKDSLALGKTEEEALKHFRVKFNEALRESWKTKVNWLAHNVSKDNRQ
T1 sequence (P27986 whole entry partner): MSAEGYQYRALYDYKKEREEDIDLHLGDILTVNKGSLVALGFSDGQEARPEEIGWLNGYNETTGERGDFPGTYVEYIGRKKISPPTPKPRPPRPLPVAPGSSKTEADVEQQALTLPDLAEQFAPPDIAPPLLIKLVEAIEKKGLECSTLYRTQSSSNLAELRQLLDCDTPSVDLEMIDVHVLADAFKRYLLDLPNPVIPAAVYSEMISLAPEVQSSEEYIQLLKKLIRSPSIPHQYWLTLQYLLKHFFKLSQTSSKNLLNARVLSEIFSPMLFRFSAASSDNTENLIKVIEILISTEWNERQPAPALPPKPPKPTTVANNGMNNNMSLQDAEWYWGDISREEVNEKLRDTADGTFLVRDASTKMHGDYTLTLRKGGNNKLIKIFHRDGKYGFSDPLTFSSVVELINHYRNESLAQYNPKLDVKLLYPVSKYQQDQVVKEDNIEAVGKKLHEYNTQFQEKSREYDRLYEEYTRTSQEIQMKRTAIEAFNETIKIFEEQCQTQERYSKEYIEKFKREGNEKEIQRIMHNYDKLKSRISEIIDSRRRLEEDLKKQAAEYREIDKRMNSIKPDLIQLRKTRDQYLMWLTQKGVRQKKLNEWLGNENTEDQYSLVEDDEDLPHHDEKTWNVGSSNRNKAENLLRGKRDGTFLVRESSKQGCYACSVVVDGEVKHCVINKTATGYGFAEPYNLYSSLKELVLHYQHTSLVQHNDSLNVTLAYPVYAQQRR
Description: Anti-IgM induced B-cell proliferation (PI3Kδ selectivity). Type of test: cell-based. To be noted: read-out: Cellular IC50 PI3K delta (anti-IgM induced human B-cell proliferation). How it is done: The objective of this study was to assess the inhibitory potential of Compound A1 on anti-IgM induced human B-cell proliferation.
• Isolated B-cells were re-suspended to 1.0×10^6 cells per ml. 100 μl of cell suspension was added to each well of a 96-well plate. Triplicates were maintained. • 50 μl of drug dilution was added and mixed well. A DMSO blank and inducer blank were maintained. • Treated plate was incubated for 30 min at 37° C., 5% CO2 and then 50 μl of 4× inducer was added and mixed by pipetting. • Plate was incubated at 37° C., 5% CO2 for 72 h. • Media was aspirated and 150 μl of DMSO was added to dissolve the formazan crystals. • Absorbance was read at A560 and A640 nm.

Another test concerns the target T2, PI3K beta (Mus musculus, UniProt Q8BTI9).
T2 construct: 3T3 cells were treated with desired concentrations of the test compound for 15 min; endogenous in cells; host or cells: 3T3 fibroblasts
Description: LPA induced AktS473 phosphorylation in 3T3 fibroblasts (PI3Kβ selectivity). Particulars: read-out: Cellular IC50 PI3K beta (LPA induced pAKT in 3T3 fibroblasts). Type of test: cell-based.

In the next test the target is T3, PI3K gamma (Mus musculus, UniProt Q9JHG7).
T3 construct: endogenous in cells; host or cells: RAW 264.7 macrophages
T3 sequence (Q9JHG7 whole entry): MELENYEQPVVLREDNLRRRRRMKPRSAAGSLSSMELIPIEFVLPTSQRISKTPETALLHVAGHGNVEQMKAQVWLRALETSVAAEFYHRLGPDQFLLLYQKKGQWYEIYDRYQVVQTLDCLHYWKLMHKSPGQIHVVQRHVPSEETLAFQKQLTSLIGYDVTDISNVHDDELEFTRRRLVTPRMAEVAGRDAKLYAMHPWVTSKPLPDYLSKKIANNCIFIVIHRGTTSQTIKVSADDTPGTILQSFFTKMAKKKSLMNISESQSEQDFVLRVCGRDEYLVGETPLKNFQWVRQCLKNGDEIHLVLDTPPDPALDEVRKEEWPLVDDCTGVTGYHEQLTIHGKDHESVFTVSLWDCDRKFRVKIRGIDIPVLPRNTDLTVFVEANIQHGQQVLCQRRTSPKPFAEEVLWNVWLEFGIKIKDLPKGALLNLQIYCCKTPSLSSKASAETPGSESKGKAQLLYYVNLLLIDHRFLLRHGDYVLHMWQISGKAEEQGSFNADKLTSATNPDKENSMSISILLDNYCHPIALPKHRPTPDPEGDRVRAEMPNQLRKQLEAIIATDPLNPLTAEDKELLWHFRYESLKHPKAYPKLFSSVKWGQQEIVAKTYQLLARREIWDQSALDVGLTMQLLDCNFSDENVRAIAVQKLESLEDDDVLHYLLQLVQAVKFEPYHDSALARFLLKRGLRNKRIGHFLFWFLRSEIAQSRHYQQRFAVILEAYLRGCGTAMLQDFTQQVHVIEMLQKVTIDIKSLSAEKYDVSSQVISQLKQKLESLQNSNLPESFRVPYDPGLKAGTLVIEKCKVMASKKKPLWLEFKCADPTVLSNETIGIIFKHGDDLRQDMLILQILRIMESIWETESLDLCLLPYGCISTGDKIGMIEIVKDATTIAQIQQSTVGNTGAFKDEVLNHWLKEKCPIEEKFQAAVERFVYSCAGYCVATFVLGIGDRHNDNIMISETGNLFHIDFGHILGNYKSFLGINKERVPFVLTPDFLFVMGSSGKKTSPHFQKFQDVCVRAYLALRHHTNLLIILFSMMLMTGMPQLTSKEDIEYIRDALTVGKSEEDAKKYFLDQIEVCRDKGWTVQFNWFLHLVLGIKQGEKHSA
Description: c5a induced AktS473 phosphorylation in RAW 264.7 macrophages (PI3Kγ selectivity). In kind it is cell-based. To be noted: read-out: Cellular IC50 PI3K gamma (c5a induced pAKT in RAW macrophages). How it is done: The objective of this study was to determine the effect of Compound A1 on PI3Kγ kinase mediated c5a induced AktS473 phosphorylation in RAW 264.7 macrophages. • RAW 264.7 cells were treated with desired concentrations of the test compound for 15 min. 1 ml of 2× c5a was added such that the final concentration was 50 ng/ml and incubated for 15 min. • Media was discarded and washed with 1 ml of ice-cold 1× PBS. • 250 μl of cell lysis buffer was added and incubated on ice for 30 min. • Samples were centrifuged and supernatant was stored at −80° C. until analysis • Samples were analyzed by Western Blotting using pAKT (S473) as the primary and anti-rabbit IgG-HRP as a secondary antibody. • Intensity of the bands was determined using ImageJ 1.42q (NIH, USA) and normalized to Actin (loading control). Data was plotted using GraphPad Prism (Version 5.02).

Another test concerns Primary CLL cells. Description: Anti-cancer activity in human CLL cells (MTS cytotoxicity). Type of test: cell-based. To be noted: CLL cell, 72 h, 3 days, read-out: median EC50, cytotoxicity in CLL cells. As to the method:
Primary CLL cells were enriched using Rosette-Sep B cells from Stem Cell Technology, generally giving purity of >97% of B cells/CLL cells. Cells were seeded at 2.5×10^5 per well in a 96 well with either serum free medium (SFM) or SFM+10% heat-inactivated fetal bovine serum (volume 100 microliters) in the presence of desired concentrations of the test compound and cultured for 3 days at 37° C. in a carbon dioxide incubator. Cytotoxicity was determined using the MTS assay.

Another test has as its system TNF-α. Put plainly: Lipopolysaccharide induced TNF-α production. In kind it is in vivo, rat. As to the method:
Fasted female wistar rats were randomized into different groups depending on their body weights. Test compound (Compound A1) was prepared as a suspension in a vehicle consisting of 0.5% methylcellulose. The compound or vehicle was administered by oral gavage in a volume of 10 mL/kg. LPS solution was administered intraperitoneally one hour after compound administration at a dose of 0.3 mg/kg. Blood was collected in serum separator tubes via cardiac puncture ninety minutes after LPS injection. Serum was separated and stored at −20° C. and will be analysed for TNFα by ELISA.

In the next test the test system is male guinea pigs. Description: Ovalbumin induced pulmonary eosinophilia in male guinea pigs. In kind it is in vivo, guinea pig. To be noted: sensitized guinea pigs, 0.3, 1, 3 mg/kg oral. How it is done:
After the quarantine period, 0.3 mL of blood samples was collected from orbital vein by retro-orbital plexus method from each individual animal and analysed on a cell analyser (ADVIA 2120, Siemens). Based on their total cell count, guinea pigs were randomized and divided into various groups. Ear pinna was marked with an indelible marking pen for identification. On day 0, weights were recorded and animals were sensitized with 50 μg of Ovalbumin (OVA) and 10 mg of alum solution (1 mL) intraperitoneally. On day 7 and day 14, the above sensitization protocol was repeated. […] On day 19, 20, and 21, after the treatment with test compound by oral gavage, 30 mins later animals were exposed to 0.5% w/v, 0.5% and 1% Ovalbumin challenge respectively. Control & sham group animals were treated with 0.5% w/v methyl cellulose (vehicle). Sham control groups were sensitized with 10 mg of alum on day 0, 7 & 14 and exposed to saline solution (SAL) with the same nebulization rate on day 19. 20 and 21. Twenty hours after last OVA challenge, airway hyperresponsiveness was measured by whole body plethysmograph against cumulative doses of methacholine challenge (75, 100, 125 & 150 μg/ml), after measuring the airway response, blood samples and BAL fluid was collected. Samples were analysed for total cell count by using neubuear chamber under microscope and differential leukocyte count was done manually.

Another test has as its target PI3Kδ (Homo sapiens, UniProt O00329). Description: Fluorescent (HTRF) determination of PI3 kinase enzyme activity, delta isoform. Details: purchased Millipore (assay kit). In kind it is biochemical. Particulars: Table 1, HTRF; read-out: IC50 (nM) Pi3Kδ. An excerpt: Phosphoinositide 3 kinases (PI3K) belong to a class of lipid kinases that play a critical role in the regulation of several key cellular processes. The PI3K are capable of phosphorylating the 3-hydroxy position of phosphoinositols thereby generating second messengers involved in downstream signalling events. The homogenous time resolved fluorescence (HTRF) assay allows detection of 3,4,5-triphosphate (PIP3) formed as a result of phosphorylation of phosphotidylinositol 4,5-biphosphate (PIP2) by PI3K isoforms such as α, β, γ or δ.
PI3K isoform activity for α, β, γ or δ was determined using a PI3K human HTRF™ Assay Kit (Millipore, Billerica, Mass.) with modifications. All incubations were carried out at room temperature. Briefly, 0.5 μl of 40× inhibitor (in 100% DMSO) or 100% DMSO were added to each well of a 384-well white plate (Greiner Bio-One, Monroe, N.C.) containing 14.5 μl 1× reaction buffer /PIP2 (10 mM MgCl2, 5 mM DTT, 1.38 μM PIP2) mix with or without enzyme, followed by 5 μl/well of 400 μM ATP and incubated for an additional 30 minutes. Reaction was terminated by adding 5 μl/well stop solution (Millipore, Billerica, Mass.). […] HRTF ratio was measured on a microplate reader (BMG Labtech., Germany) at an excitation wavelength of 337 nm and emission wavelengths of 665 and 615 nm with an integration time of 400 msec counting delay of 50 msec.
(In TR-FRET formats the signal depends on donor and acceptor labels being close together.)

In general, EC50 refers to the concentration needed to bring the measured effect to its halfway point.

PI3Kδ, sequence (O00329 whole entry, canonical isoform): as the sequence (O00329 whole entry) above
PI3Kδ, sequence (P27986 whole entry partner, canonical isoform): as the sequence (P27986 whole entry partner) above
T2 sequence (Q8BTI9 whole entry): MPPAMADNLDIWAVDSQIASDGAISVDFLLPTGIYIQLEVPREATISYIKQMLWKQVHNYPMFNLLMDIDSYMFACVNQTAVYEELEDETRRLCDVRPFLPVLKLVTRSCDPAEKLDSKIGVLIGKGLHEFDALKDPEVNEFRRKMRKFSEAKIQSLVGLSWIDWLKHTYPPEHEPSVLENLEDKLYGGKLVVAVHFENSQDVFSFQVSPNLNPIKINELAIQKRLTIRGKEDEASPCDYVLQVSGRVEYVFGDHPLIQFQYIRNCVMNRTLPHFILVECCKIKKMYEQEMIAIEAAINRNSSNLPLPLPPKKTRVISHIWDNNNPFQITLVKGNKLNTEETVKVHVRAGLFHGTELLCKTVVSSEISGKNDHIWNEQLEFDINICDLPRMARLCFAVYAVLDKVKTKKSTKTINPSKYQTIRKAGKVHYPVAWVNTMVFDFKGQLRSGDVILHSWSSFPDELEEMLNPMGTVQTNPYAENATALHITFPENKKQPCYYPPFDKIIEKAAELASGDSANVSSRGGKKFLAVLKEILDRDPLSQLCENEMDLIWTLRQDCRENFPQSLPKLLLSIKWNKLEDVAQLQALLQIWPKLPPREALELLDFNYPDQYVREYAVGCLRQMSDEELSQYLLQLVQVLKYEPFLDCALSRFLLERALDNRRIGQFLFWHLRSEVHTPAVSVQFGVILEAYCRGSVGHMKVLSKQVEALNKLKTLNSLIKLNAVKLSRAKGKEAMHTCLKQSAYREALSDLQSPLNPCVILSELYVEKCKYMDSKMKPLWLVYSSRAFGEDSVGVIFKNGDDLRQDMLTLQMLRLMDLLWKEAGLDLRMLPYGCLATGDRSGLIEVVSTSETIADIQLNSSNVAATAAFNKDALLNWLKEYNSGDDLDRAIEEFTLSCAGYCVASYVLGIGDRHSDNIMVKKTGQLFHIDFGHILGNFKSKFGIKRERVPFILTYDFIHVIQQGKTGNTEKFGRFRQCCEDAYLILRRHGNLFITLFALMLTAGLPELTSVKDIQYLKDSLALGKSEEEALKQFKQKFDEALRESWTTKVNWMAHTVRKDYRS
T2 sequence (P26450 whole entry partner): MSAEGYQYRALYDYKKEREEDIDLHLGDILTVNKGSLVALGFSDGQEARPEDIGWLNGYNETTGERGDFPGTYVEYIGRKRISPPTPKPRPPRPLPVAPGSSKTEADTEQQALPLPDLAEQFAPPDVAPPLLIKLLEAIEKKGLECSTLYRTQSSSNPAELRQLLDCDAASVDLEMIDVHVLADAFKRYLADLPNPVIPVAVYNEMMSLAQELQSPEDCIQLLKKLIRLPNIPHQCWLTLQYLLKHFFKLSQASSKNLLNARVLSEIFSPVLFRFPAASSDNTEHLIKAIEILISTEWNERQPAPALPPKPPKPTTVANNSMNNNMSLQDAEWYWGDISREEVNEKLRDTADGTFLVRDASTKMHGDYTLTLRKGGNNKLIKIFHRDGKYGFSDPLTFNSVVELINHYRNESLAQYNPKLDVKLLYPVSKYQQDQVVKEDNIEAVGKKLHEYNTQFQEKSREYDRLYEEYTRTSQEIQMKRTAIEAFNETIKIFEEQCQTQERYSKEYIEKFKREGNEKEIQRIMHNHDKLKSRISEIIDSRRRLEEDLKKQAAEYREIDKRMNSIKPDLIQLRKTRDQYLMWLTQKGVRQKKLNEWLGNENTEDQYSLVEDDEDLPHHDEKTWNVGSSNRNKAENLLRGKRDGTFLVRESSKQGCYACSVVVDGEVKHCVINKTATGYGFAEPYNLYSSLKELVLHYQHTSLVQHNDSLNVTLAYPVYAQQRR

For the compound `CC[C@H](Nc1ncnc2[nH]cnc12)c1oc2ccccc2c(=O)c1-c1cccc(F)c1` [Compound A1, (S)-2-(1-(9H-purin-6-ylamino)propyl)-3-(3-fluorophenyl)-4H-chromen-4-one], the IC50 turned out to be 0.0381 µM at PI3K delta, 2.07 µM at PI3K beta, 0.0223 µM on PI3K gamma and 23.8 nM at PI3Kδ. The concentration for a half-maximal effect (EC50) is below 0.7 µM in the test on Primary CLL cells (10% FBS media) and below 0.1 µM in the test with Primary CLL cells (serum-free medium). For the same compound, the entries for the “percent inhibition of plasma TNFα” value in the test on TNF-α (1 mg/kg po), in the test on TNF-α (3 mg/kg po) and in the test with TNF-α (10 mg/kg po) were 5%, 15% and 40%, respectively. In addition, the “airway hyperresponsiveness against methacholine challenge” value in the test on male guinea pigs was “significant dose dependent reduction”. In addition, in the test on male guinea pigs, the “eosinophil infiltration into the bronchoalveolar lavage fluid” value is listed as “significant dose dependent reduction”.
